Measured values reported in ChEMBL document CHEMBL4354877, “MymA Bioactivated Thioalkylbenzoxazole Prodrug Family Active against Mycobacterium tuberculosis” (J Med Chem, 2020).

Assays:
Format in all cases: functional
[1] = system: Mycobacterium tuberculosis; assay: Antimycobacterial activity against Mycobacterium tuberculosis SG2 expressing ethA and mymA mutant assessed as inhibition of microbial growth incubated for 6 days by alamar blue resazurin assay
[2] = system: Mycobacterium tuberculosis; assay: Antimycobacterial activity against Mycobacterium tuberculosis 3-RM1 expressing mymA mutant assessed as inhibition of microbial growth incubated for 6 days by alamar blue resazurin assay
[3] = system: Mycobacterium tuberculosis; assay: Antimycobacterial activity against Mycobacterium tuberculosis 2-RM1 expressing ethA frameshift mutant assessed as inhibition of microbial growth incubated for 6 days by alamar blue resazurin assay
[4] = system: Mycobacterium tuberculosis; assay: Antimycobacterial activity against Mycobacterium tuberculosis Rv3083::Tn expressing mymA mutant assessed as inhibition of microbial growth incubated for 6 days by alamar blue resazurin assay

Compound: O=C(CCSc1nc2cc(Cl)ccc2o1)N1CCCC1
- MIC [1]: 80 µM
- MIC [2]: 40 µM
- MIC [3]: 10 µM
- MIC [4]: 40 µM
